“Also recorded” adds a separate entry of the source. Where only a bound is given, the exact number is not on record here.

In data set [1] the test system is Influenza A virus H1N1 (H1N1A/Weiss/43). In words: microbe, parasite or virus in culture. The class given is cell-based. To be noted: for EC50: 72 h.
A short description of the next data set: in vitro. To be noted: dog.
For data set [2], the system named is NA from influenza A virus H1N1. The class given is biochemical.
For a further data set, the system named is influenza A virus H1N1. Also noted: species or system SPF KM mice. To be noted: mouse, in vivo.

As a reminder, the EC50 is the midpoint of the concentration-response curve. A higher EC50 goes with a less potent agent. Compound `COC1=C(c2ccccc2)C(=O)OC1(C)OC` (stereo not drawn) [Compound 22, 3,4-dimethoxy-4-methyl-2-phenylbutenolide] gave an EC50 in data set [1] (Influenza A virus, H1N1, MDCK) of 26.3 ± 4.4 µM. In the data set “in vitro”, this compound returned a CC50 of 168 ± 9.7 µM.
Turning to `COC1=C(c2ccc(Cl)cc2)C(=O)OC1(C)OC` (stereo not drawn) [Compound 24, 2-(4-chlorophenyl)-3,4-dimethoxy-4-methylbutenolide], the CC50 in “in vitro” was 98.3 ± 3.5 µM.
Usually IC50 stands for the concentration needed to halve the response being measured. `COC1=C(c2ccc(Br)cc2)C(=O)OC1(C)OC` (stereo not drawn) [Compound 25, 2-(4-bromophenyl)-3,4-dimethoxy-4-methylbutenolide] gave an EC50 in data set [1] (Influenza A virus, H1N1, MDCK) of 61.1 ± 5 µM. Further, the IC50 in data set [1] (Influenza A virus, H1N1, MDCK, read-out: IC50 for inhibiting influenza A virus H1N1) is 61 µM. For the same compound, the CC50 in “in vitro” was found to be 266 ± 18.4 µM.
Consider `COC1=C(c2ccc(C)cc2)C(=O)OC1(C)OC` (stereo not drawn) [Compound 26, 3,4-dimethoxy-4-methyl-2-(p-tolyl) butenolide], for which the CC50 in the data set “in vitro” turned out to be 184 ± 5.1 µM.
Take `COC1=C(c2cccc(F)c2)C(=O)OC1(C)OC` (stereo not drawn) [Compound 28, 2-(3-fluorophenyl)-3,4-dimethoxy-4-methylbutenolide]: in data set [1] (Influenza A virus, H1N1, MDCK), the EC50 stood at 9.4 ± 0.8 µM. In the data set “in vitro”, this compound yielded a CC50 of 19.8 ± 1 µM.
For `COC1=C(c2ccccc2F)C(=O)OC1(C)OC` (stereo not drawn) [Compound 29, 2-(2-fluorophenyl)-3,4-dimethoxy-4-methylbutenolide], the CC50 in “in vitro” is 204 ± 3.2 µM.
`COC1=C(c2ccc(F)c(F)c2)C(=O)OC1(C)OC` (stereo not drawn) [Compound 30, 2-(3,4-difluorophenyl)-3,4-dimethoxy-4-methylbutenolide] had an EC50 in data set [1] (Influenza A virus, H1N1, MDCK) of 33.4 ± 1 µM. Also, the CC50 in the data set “in vitro” amounted to 109 ± 7.6 µM.
For the compound `COc1ccc(C2=C(N3CCOCC3)C(C)(OC)OC2=O)cc1` (stereo not drawn) [Compound 37, 2-(4-methoxyphenyl)-4-methoxy-4-methyl-3-morpholinobutenolide], the “antivirus activity against influenza A H1N1 (in words)” value in data set [1] is “dose-dependent; also recorded: better antivirus activity than positive control ribavirin”. In addition, in data set [1] (Influenza A virus, H1N1, MDCK), the EC50 turned out to be 6.7 ± 1.3 µM. In addition, in data set [2], the “inhibition rate of NA activity (in words)” value is listed as “increased in a dose-dependent manner”. Further, in the data set on influenza A virus H1N1, the “body temperature after virus infection” value was “closed to the control groups”; the “body weight after virus infection” value is reported as “kept increasing”; the “gross lesions in lungs” value is given as “less lesion”; the “lung histopathology (H&E staining)” value was “less lung inflammation and lesions”. Besides, the “viral load / expression of virus gene in lung tissue by qRT-PCR” value in the data set on influenza A virus H1N1 is listed as “inhibit the expression of the influenza A virus gene in the lung; also recorded: Lower viral loads; also recorded: lower than that of the model group”. In addition, the CC50 in the data set “in vitro” worked out at 536 ± 15.1 µM.
With `COC1=C(c2ccc(Cl)cc2)C(=O)OC1(C)C(O)c1ccc(C)cc1` (stereo not drawn) [Compound 46], the CC50 in “in vitro” came to 75.2 ± 3.6 µM.
The compound `COC1=C(c2ccc(Cl)cc2)C(=O)OC1(C)C(O)c1ccccn1` (stereo not drawn) [Compound 47] returned a CC50 in the data set “in vitro” of 155 ± 6.8 µM.
In the data set “in vitro”, `COC1=C(c2ccc(Cl)cc2)C(=O)OC1(C)C(O)c1ccc(N2CCOCC2)cc1` (stereo not drawn) [Compound 48] gave a CC50 of 130 ± 8.1 µM.
As for `COC1(C)OC(=O)C(c2ccc(F)cc2)=C1N1CCOCC1` (stereo not drawn) [Compound 57], the EC50 in data set [1] (Influenza A virus, H1N1, MDCK) was determined as 14.3 ± 1.7 µM. Also, the CC50 in the data set “in vitro” was determined as 776 ± 63.2 µM.
For `COC1(C)OC(=O)C(c2ccc(Cl)cc2)=C1N1CCOCC1` (stereo not drawn) [Compound 58], in that order: 34.7 ± 5.9 µM and 209 ± 14.1 µM.
In turn, `COC1(C)OC(=O)C(c2cccc(F)c2)=C1N1CCOCC1` (stereo not drawn) [Compound 60] showed a CC50 in “in vitro” of 147 ± 8.1 µM.
In data set [1] (Influenza A virus, H1N1, MDCK), `CCOC(=O)C1=C[C@@H](OC(CC)CC)[C@H](NC(C)=O)[C@@H](N)C1` [Os, Oseltamivir, reference compound] displayed an EC50 of 0.28 ± 0.05 µM. In the data set “in vitro”, this compound returned a CC50 of more than 800 µM.
Turning to `NC(=O)c1ncn([C@@H]2O[C@H](CO)[C@@H](O)[C@H]2O)n1` [Ri, Ribavirin, reference compound], the EC50 in data set [1] (Influenza A virus, H1N1, MDCK) was found to be 105 ± 51 µM. The CC50 in the data set “in vitro” stood at 532 ± 20.3 µM.

For the origin of these results see publication PMC6705239 (ACS Omega, 2019).
